Data from patent publication US11337423B1, “Candida auris disinfectant” (priority 2021, dated 2022).

Key:
Experiment in all cases: zone of inhibition in vitro test
Type in all cases: cell-based
Candida auris CDC B11903 = test system: Candida auris CDC B11903
MRSE ATCC 51625 = test system: MRSE ATCC 51625
[1] = test system: Salmonella enterica ATCC 14028
[2] = test system: Escherichia coli ATCC 8739
[3] = test system: Escerichia coli ATCC 43895
[4] = test system: Staphylococcus aureus ATCC 6538
[5] = test system: Klebsiella pneumoniae ATCC 4352
[6] = test system: Pseudomonas aeruqinosa ATCC 9-27
[7] = test system: Propionibacterium acnes ATCC 6919
[8] = test system: Staphyloccus epidermidis ATCC 12228
Escherichia coli 0157:H7 = test system: Escherichia coli 0157:H7
[9] = test system: Methicillin Resistant Staphylococcus aureus ATCC 33591
[10] = test system: Candida albicans ATCC 10231
[11] = test system: Lactobacillus casei ATCC 393
[12] = test system: Clostridium perfrinqens ATCC 13124
[13] = Candida auris CDC 811903, Table 2

CCOC(=O)c1ccc(O)c(O)c1 [Ethyl ester of protocatechuic acid, 3,4-Dihydroxybenzoic acid ethyl ester]
Average (mm) (Candida auris CDC B11903; [13]): 29.5 mm | RESULTS (mm) Plate 2 (Candida auris CDC B11903; [13]): 28 mm | RESULTS (mm) Plate I (Candida auris CDC B11903; [13]): 31 mm | topical disinfection for Candida auris (Candida auris CDC B11903; conclusion in words from the in vitro test results): excellent agent for topical disinfection | Average (mm) (MRSE ATCC 51625): 23 mm | RESULTS (mm) Plate 1 (MRSE ATCC 51625): 23 mm | RESULTS (mm) Plate 2 (MRSE ATCC 51625): 22 mm | Average (mm) [1]: 28 mm | RESULTS (mm) Plate 1 [1]: 28 mm | RESULTS (mm) Plate 2 [1]: 28 mm | Average (mm) [2]: 23 mm | RESULTS (mm) Plate 1 [2]: 22 mm | RESULTS (mm) Plate 2 [2]: 24 mm | Average (mm) [3]: 27 mm | RESULTS (mm) Plate 1 [3]: 25 mm | RESULTS (mm) Plate 2 [3]: 28 mm | Average (mm) [4]: 27 mm | RESULTS (mm) Plate 1 [4]: 26 mm | RESULTS (mm) Plate 2 [4]: 28 mm | Average (mm) [5]: 27 mm | RESULTS (mm) Plate 1 [5]: 28 mm | RESULTS (mm) Plate 2 [5]: 26 mm | Average (mm) [6]: 11 mm | RESULTS (mm) Plate 1 [6]: 11 mm | RESULTS (mm) Plate 2 [6]: 11 mm | Average (mm) [7]: 20 mm | RESULTS (mm) Plate 1 [7]: 22 mm | RESULTS (mm) Plate 2 [7]: 18 mm | Average (mm) [8]: 35 mm | RESULTS (mm) Plate 1 [8]: 35 mm | RESULTS (mm) Plate 2 [8]: 35 mm | Average (mm) (Escherichia coli 0157:H7): 27 mm | RESULTS (mm) Plate 1 (Escherichia coli 0157:H7): 26 mm | RESULTS (mm) Plate 2 (Escherichia coli 0157:H7): 28 mm | Average (mm) [9]: 26.5 mm | RESULTS (mm) Plate 1 [9]: 28 mm | RESULTS (mm) Plate 2 [9]: 25 mm | Average (mm) [10]: 29.5 mm | RESULTS (mm) Plate 1 [10]: 31 mm | RESULTS (mm) Plate 2 [10]: 28 mm | Average (mm) [11]: 23 mm | RESULTS (mm) Plate 1 [11]: 24 mm | RESULTS (mm) Plate 2 [11]: 22 mm | Average (mm) [12]: 52 mm | RESULTS (mm) Plate 1 [12]: 50 mm | RESULTS (mm) Plate 2 [12]: 54 mm

O=C(O)c1ccc(O)c(O)c1 [Protocatechuic acid, reference compound]
resistance of Candida auris to the chemical (Candida auris CDC B11903; conclusion in words): very resistant | Average (mm) (MRSE ATCC 51625): 18 mm | RESULTS (mm) Plate 1 (MRSE ATCC 51625): 15 mm | RESULTS (mm) Plate 2 (MRSE ATCC 51625): 20 mm | Average (mm) [1]: 14 mm | RESULTS (mm) Plate 1 [1]: 15 mm | RESULTS (mm) Plate 2 [1]: 13 mm | Average (mm) [2]: 14 mm | RESULTS (mm) Plate 1 [2]: 14 mm | RESULTS (mm) Plate 2 [2]: 14 mm | Average (mm) [3]: 13 mm | RESULTS (mm) Plate 1 [3]: 14 mm | RESULTS (mm) Plate 2 [3]: 12 mm | Average (mm) [4]: 18 mm | RESULTS (mm) Plate 1 [4]: 18 mm | RESULTS (mm) Plate 2 [4]: 18 mm | Average (mm) [5]: 14.5 mm | RESULTS (mm) Plate 1 [5]: 16 mm | RESULTS (mm) Plate 2 [5]: 13 mm | Average (mm) [6]: 13 mm | RESULTS (mm) Plate 1 [6]: 13 mm | RESULTS (mm) Plate 2 [6]: 13 mm | Average (mm) [7]: 21 mm | RESULTS (mm) Plate 1 [7]: 23 mm | RESULTS (mm) Plate 2 [7]: 19 mm | Average (mm) [8]: 27 mm | RESULTS (mm) Plate 1 [8]: 26 mm | RESULTS (mm) Plate 2 [8]: 28 mm | Average (mm) (Escherichia coli 0157:H7): 15.5 mm | RESULTS (mm) Plate 1 (Escherichia coli 0157:H7): 17 mm | RESULTS (mm) Plate 2 (Escherichia coli 0157:H7): 14 mm | Average (mm) [9]: 21 mm | RESULTS (mm) Plate 1 [9]: 21 mm | RESULTS (mm) Plate 2 [9]: 21 mm | Average (mm) [10]: 18 mm | RESULTS (mm) Plate 1 [10]: 21 mm | RESULTS (mm) Plate 2 [10]: 15 mm | Average (mm) [11]: 21 mm | RESULTS (mm) Plate 1 [11]: 18 mm | RESULTS (mm) Plate 2 [11]: 24 mm | Average (mm) [12]: 52 mm | RESULTS (mm) Plate 1 [12]: 54 mm | RESULTS (mm) Plate 2 [12]: 50 mm
